How the values were obtained:
[1] = Standard bidirectional permeability assay, Caco-2 cells; type: in vitro ADME; settings: human; for Papp A→B at 10 µM: read-out: Caco-2 Papp,AB; for Papp B→A at 10 µM: read-out: Caco-2 PappBA
[2] = tested on: Caco-2 cells; experiment: Modified bidirectional permeability assay (24 h preincubation), Caco-2 cells; settings: Caco-2, modified assay; 5 µM zosuquidar
[3] = tested on: P-gp; experiment: as above; settings: human, Caco-2, pH 7.4, with zosuquidar 5 µM
[4] = as above; settings: human, Caco-2, pH 7.4
[5] = tested on: P-gp (MDR1); experiment: Standard bidirectional permeability assay, MDCK-MDR1 cells; type: in vitro ADME, canine; settings: dog, MDCK-MDR1, pH 7.4, 10 µM in donor; for Papp A→B at 10 µM: read-out: MDCK-MDR1 Papp,AB
[6] = as above; type: in vitro ADME, canine; settings: dog, MDCK-MDR1, pH 7.4, 10 µM in donor, read-out: MDCK-MDR1 PappBA
[7] = pH 7.4, Caco-2, standard conditions
[8] = Caco-2, pH 7.4, standard assay, 10 µM in donor

Compound | Papp ([1]; pH 7.4, Caco-2, standard assay, read-out: intrinsic permeability) [×10⁻⁶ cm/s] | Papp A→B [1, 7] [×10⁻⁶ cm/s] | efflux ratio [1, 7] | inhibition of efflux by zosuquidar (P-gp substrate) [2] | Papp A→B at 1 µM [3] [×10⁻⁶ cm/s] | Papp A→B at 1 µM [4] [×10⁻⁶ cm/s] | efflux ratio at 1 µM [4] | Papp A→B at 10 µM [1, 8] [×10⁻⁶ cm/s] | Papp B→A at 10 µM [1, 8] [×10⁻⁶ cm/s] | efflux ratio at 10 µM [5] | Papp A→B at 10 µM [5] [×10⁻⁶ cm/s] | Papp B→A at 10 µM [6] [×10⁻⁶ cm/s] | efflux ratio at 10 µM [1, 8]
Cc1nnc2n1-c1sc(CCC(=O)N3CCOCC3)cc1C(c1ccccc1Cl)=NC2 [Apafant, apafant] | 14 | 2.3 | 15.9 | inhibited completely | 13 | 2.6 | 13.8 | – | – | – | – | – | –
COCCc1ccc(OCC(O)CNC(C)C)cc1 (stereo not drawn) [Metoprolol] | – | – | – | – | – | – | – | 54.3 | 41 | 1 | 67.7 | 68.5 | –
CC(C)NCC(O)COc1cccc2ccccc12 (stereo not drawn) [Propranolol] | – | – | – | – | – | – | – | 79 | 69.5 | 0.8 | 38.4 | 32.6 | 1.1

— PMC8400635, “A Bidirectional Permeability Assay for beyond Rule of 5 Compounds” (Pharmaceutics, 2021)
